Experimental data reported in patent EP0179583A1, “A system for enhancing the water dissolution rate and solubility of poorly soluble drugs” (Merck & Co., Inc., priority 1984, dated 1986).

Key:
Type in all cases: physicochemical
[1] = Dissolution rate, solution/adsorption products versus comparison (Example 11); conditions: added alone or dissolved in glycerol formal to an aqueous surfactant solution
Excerpt: 37 parts of each of the solutions produced in Examples 5 and 6 is dry blended with I part of Accurel powder (50-75% void space). This mixture is then blended with 12 parts of Cab-O-Sil to produce a dry free-flowing powder which may be used as such or tableted as in Example 10.

[2] = Dissolution of thermoplastic solids in deionized distilled water (Example 12); conditions: ivermectin into an aqueous solution of an equivalent amount of thermoplastic surfactant
[3] = Solubility in deionized distilled water (Example 14)
Description: A solution of 5% (50 mg/ml) w/v ivermectin is prepared by dissolving the product in Examples 1-5 and 7-9 in sufficient deionized distilled water. A mixture of an equivalent amount of ivermectin in deonized distilled water is only marginally soluble (1-4 mcg/ml). Therefore, the solubility of a poorly water soluble drug is enhanced (50,000 mcg/ml).

[4] = Dissolution of compressed tablets in water (Example 10); conditions: compressed tablets of ivermectin alone
Description: The dissolution of said tablets to yield a clear infinitely diluable aqueous solution of ivermectin is very rapid (15 minutes with gentle agitation).

## ivermectin
[1]
  dissolution rates compared with the invention: less than those observed with the invention
[2]
  dissolution rate compared with the method of the invention: significantly slower
[3]
  solubility: 1 to 4 µg/mL
[4]
  time within which tablets do not dissolve or disintegrate: > 3 days
